Measured values as given in patent US20250319046A1, “PHENYLALANINE-BASED LAT1 INHIBITORS AND USES THEREOF” (MAXYMUNE THERAPEUTICS, INC., priority 2024, published 2025).

What follows are compounds tested against LAT1 (Homo sapiens (Human), UniProt Q01650) (assay: LAT1 uptake inhibition assay: [3H]-gabapentin competition uptake in LN229 cells). Conditions: [3H]-gabapentin uptake, 15 min incubation in PBS, read-out: IC50, the concentration of test compound at which the [3H]-GP uptake was inhibited by 50%.
Assay type: cell-based
Method: LAT1 Uptake Inhibition Assay
The ability of compounds to interact with LAT1 was measured using a radiolabeled competition uptake assay with [^3H]-Gabapentin ([^3H]-GP) (Perkin Elmer) in 96-well plates with LN229 cells (ATCC®). Ten (10)×10^3 (10,000) cells/well were plated in white, clear bottom plates and were allowed to grow for three (3) days. On the fourth day, the cells were washed and then incubated with 50,000 counts per minute (cpm) of [^3H]-GP in phosphate buffered saline (PBS) (VWR International) with increasing concentrations of test compounds in at least triplicate for 15 min. At end of the assay time, the incubation solution was removed, and plates were washed three times (3×) with 100 μL of ice-cold PBS buffer. One-hundred fifty (150) […] of scintillation fluid (VWR International) was added to each well, and the radioactivity retained within the cells was measured on a 96-well scintillation counter. Background uptake ([^3H]-GP uptake in the presence of 10 mM non-radiolabeled gabapentin (GP)) (MedKoo) was subtracted and data were normalized to the DMSO control ([^3H]-GP uptake in the absence of any competitor). Data were fitted to the Michaelis-Menten equation using GraphPad Prism (Version 8.2.0).

Sequence of LAT1 (Q01650 whole entry): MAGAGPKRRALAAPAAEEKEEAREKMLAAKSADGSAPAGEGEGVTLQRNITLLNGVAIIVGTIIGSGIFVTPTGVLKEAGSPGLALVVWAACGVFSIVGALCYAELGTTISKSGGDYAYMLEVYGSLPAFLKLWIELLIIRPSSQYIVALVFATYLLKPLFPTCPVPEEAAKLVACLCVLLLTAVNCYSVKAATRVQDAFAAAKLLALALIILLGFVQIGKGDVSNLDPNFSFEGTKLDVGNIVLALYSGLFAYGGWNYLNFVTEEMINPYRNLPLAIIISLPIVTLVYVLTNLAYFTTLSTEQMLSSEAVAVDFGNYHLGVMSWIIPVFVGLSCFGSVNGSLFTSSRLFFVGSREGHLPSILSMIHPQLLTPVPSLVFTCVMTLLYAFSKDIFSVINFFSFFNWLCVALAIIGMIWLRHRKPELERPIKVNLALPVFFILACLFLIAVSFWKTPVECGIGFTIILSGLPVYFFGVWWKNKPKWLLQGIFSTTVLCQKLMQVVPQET
Sequence of LAT1 (P08195 whole entry partner): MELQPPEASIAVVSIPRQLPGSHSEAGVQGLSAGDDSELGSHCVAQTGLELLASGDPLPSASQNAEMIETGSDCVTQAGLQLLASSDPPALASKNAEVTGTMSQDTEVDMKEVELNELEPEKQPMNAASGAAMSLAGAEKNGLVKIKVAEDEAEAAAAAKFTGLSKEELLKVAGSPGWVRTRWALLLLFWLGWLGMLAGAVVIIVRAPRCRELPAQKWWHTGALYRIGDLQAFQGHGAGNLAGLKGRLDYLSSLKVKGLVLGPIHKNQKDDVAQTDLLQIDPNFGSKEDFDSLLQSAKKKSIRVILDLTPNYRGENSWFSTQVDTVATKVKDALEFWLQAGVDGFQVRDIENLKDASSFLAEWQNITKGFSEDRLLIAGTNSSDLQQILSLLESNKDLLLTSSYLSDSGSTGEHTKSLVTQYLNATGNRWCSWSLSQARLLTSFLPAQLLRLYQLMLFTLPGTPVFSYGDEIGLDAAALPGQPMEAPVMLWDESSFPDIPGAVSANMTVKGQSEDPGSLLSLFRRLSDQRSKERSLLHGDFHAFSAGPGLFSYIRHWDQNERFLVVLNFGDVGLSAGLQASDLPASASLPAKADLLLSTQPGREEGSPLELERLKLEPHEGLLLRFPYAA

Structure (SMILES)	IC50 [µM]
Cc1ccc(NS(=O)(=O)c2cccnc2)cc1C[C@H](N)C(=O)O [Compound 11, (S)-2-Amino-3-(2-methyl-5-(pyridine-3-sulfonamido)phenyl)propanoic Acid]	1 to 10
CCCCS(=O)(=O)Nc1ccc(C)c(C[C@H](N)C(=O)O)c1 [Compound 58, (S)-2-Amino-3-(5-(butylsulfonamido)-2-methylphenyl)propanoic Acid]	0.1 to 1
CS(=O)(=O)Nc1ccccc1C[C@H](N)C(=O)O [Compound 1, (S)-2-Amino-3-(2-(methylsulfonamido)phenyl)propanoic Acid]	≥ 10
Cc1ccc(NS(=O)(=O)c2cccc3ncccc23)cc1C[C@H](N)C(=O)O [Compound 9, (S)-2-Amino-3-(2-methyl-5-(quinoline-5-sulfonamido)phenyl)propanoic Acid]	1 to 10
CN(C)c1cccc2c(S(=O)(=O)Nc3cccc(C[C@H](N)C(=O)O)c3)cccc12 [Compound 3, (S)-2-Amino-3-(3-((5-(dimethylamino)naphthalene)-1-sulfonamido)phenyl)propanoic Acid]	0.1 to 1
COc1ccc(S(=O)(=O)Nc2ccc(C)c(C[C@H](N)C(=O)O)c2)cc1 [Compound 57, (S)-2-Amino-3-(5-((4-methoxyphenyl)sulfonamido)-2-methylphenyl)propanoic Acid]	0.1 to 1
Cc1ccc(NS(=O)(=O)c2cn(C)c(C)n2)cc1C[C@H](N)C(=O)O [Compound 18, (S)-2-Amino-3-(5-((1,2-dimethyl-1H-imidazole)-4-sulfonamido)-2-methylphenyl)propanoic Acid]	≥ 10
Cc1ccc(NS(=O)(=O)c2cccc(N)c2)cc1C[C@H](N)C(=O)O [Compound 28, (S)-2-Amino-3-(5-((3-aminophenyl)sulfonamido)-2-methylphenyl)propanoic Acid]	0.1 to 1
COc1ccc(NS(=O)(=O)c2cccc3c(N(C)C)cccc23)cc1C[C@H](N)C(=O)O [Compound 5, (S)-2-Amino-3-(5-((5-(dimethylamino)naphthalene)-1-sulfonamido)-2-methoxyphenyl)propanoic Acid]	0.1 to 1
CN(C)c1cccc2c(S(=O)(=O)Nc3ccc(C[C@H](N)C(=O)O)cc3)cccc12 [Compound 4, (S)-2-amino-3-(4-((5-(dimethylamino)naphthalene)-1-sulfonamido)phenyl)propanoic acid]	1 to 10
Cc1ccc(CS(=O)(=O)Cc2ccccc2)cc1C[C@H](N)C(=O)O [Compound 56, (S)-2-Amino-3-(5-((benzylsulfonyl)methyl)-2-methylphenyl)propanoic Acid]	0.1 to 1
N[C@@H](Cc1cc(Cl)c(NS(=O)(=O)c2ccccc2)c(Cl)c1)C(=O)O [Compound 47, (S)-2-Amino-3-(3,5-dichloro-4-(phenylsulfonamido)phenyl)propanoic Acid]	≥ 10
Cc1ccc(NS(=O)(=O)C2CCCCC2)cc1C[C@H](N)C(=O)O [Compound 26, (S)-2-Amino-3-(5-(cyclohexanesulfonamido)-2-methylphenyl)propanoic Acid]	0.1 to 1
Cc1ccc(N(C)S(=O)(=O)c2cccc3c(N(C)C)cccc23)cc1C[C@H](N)C(=O)O [Compound 16, (S)-2-Amino-3-(5-((5-(dimethylamino)-N-methylnaphthalene)-1-sulfonamido)-2-methylphenyl)propanoic Acid]	0.1 to 1
N[C@@H](Cc1cccc(NS(=O)(=O)c2ccccc2)c1)C(=O)O [Compound 37, (S)-2-Amino-3-(3-(phenylsulfonamido)phenyl)propanoic Acid]	0.1 to 1
Cc1ccc(NS(=O)(=O)c2cccc3c(N(C)C)cccc23)cc1C[C@H](N)C(=O)O [Compound 2, (S)-2-Amino-3-(5-((5-(dimethylamino)naphthalene)-1-sulfonamido)-2-methylphenyl)propanoic Acid]	0.1 to 1
Cc1ccc(NS(=O)(=O)c2ccc(Cl)c3nonc23)cc1C[C@H](N)C(=O)O [Compound 24, (S)-2-Amino-3-(5-((7-chlorobenzo[c][1,2,5]oxadiazole)-4-sulfonamido)-2-methylphenyl)propanoic Acid]	1 to 10
Cc1ccc(S(=O)(=O)Nc2ccc(Cl)cc2)cc1C[C@@H](N)C(=O)O [Compound 51, (R)-2-Amino-3-(5-(N-(4-chlorophenyl)sulfamoyl)-2-methylphenyl)propanoic Acid]	≥ 10
Cc1ccc(NS(=O)(=O)c2cccc3nonc23)cc1C[C@H](N)C(=O)O [Compound 25, (S)-2-Amino-3-(5-(benzo[c][1,2,5]oxadiazole-4-sulfonamido)-2-methylphenyl)propanoic Acid]	1 to 10
COc1cc(NS(=O)(=O)c2cccc3c(N(C)C)cccc23)ccc1C[C@H](N)C(=O)O [Compound 8, (S)-2-Amino-3-(4-((5-(dimethylamino)naphthalene)-1-sulfonamido)-2-methoxyphenyl)propanoic Acid]	1 to 10
CC(C)c1ccc(NS(=O)(=O)c2cccc3c(N(C)C)cccc23)cc1C[C@@H](N)C(=O)O [Compound 34, (R)-2-Amino-3-(5-((5-(dimethylamino)naphthalene)-1-sulfonamido)-2-isopropylphenyl)propanoic Acid]	1 to 10
Cc1ccc(NS(=O)(=O)c2ccc(-c3ccccc3)cc2)cc1C[C@H](N)C(=O)O [Compound 17, (S)-3-(5-([1,1′-Biphenyl]-4-sulfonamido)-2-methylphenyl)-2-aminopropanoic Acid]	0.1 to 1
Cc1ccc(S(=O)(=O)Nc2ccc(S(=O)(=O)Nc3ccc(C)c(C[C@H](N)C(=O)O)c3)cc2)cc1 [Compound 33, (S)-2-Amino-3-(2-methyl-5-((4-((4-methylphenyl)sulfonamido)phenyl)sulfonamido)phenyl)propanoic Acid]	0.1 to 1
Cc1ccc(S(=O)(=O)Nc2cccc3ncccc23)cc1C[C@H](N)C(=O)O [Compound 50, (S)-2-Amino-3-(2-methyl-5-(N-(quinolin-5-yl)sulfamoyl)phenyl)propanoic Acid]	0.1 to 1
CC(=O)Nc1ccc(S(=O)(=O)Nc2ccc(C)c(C[C@H](N)C(=O)O)c2)c2ccccc12 [Compound 13, (S)-3-(5-((4-Acetamidonaphthalene)-1-sulfonamido)-2-methylphenyl)-2-aminopropanoic Acid]	1 to 10
Cc1ccc(S(=O)(=O)N(c2ccc(C)c(C[C@H](N)C(=O)O)c2)S(=O)(=O)c2ccc(C)cc2)cc1 [Compound 48, (S)-2-Amino-3-(2-methyl-5-((4-methyl-N-tosylphenyl)sulfonamido)phenyl)propanoic Acid]	0.1 to 1

Continued, values first:

IC50 [µM]	Structure (SMILES)
0.1 to 1	Cc1ccc(CNS(=O)(=O)c2ccccc2)cc1C[C@H](N)C(=O)O [Compound 69, (S)-2-Amino-3-(2-methyl-5-(phenylsulfonamidomethyl)phenyl)propanoic Acid]
1 to 10	Cc1ccc(S(=O)(=O)Nc2cc(C[C@H](N)C(=O)O)cc(NS(=O)(=O)c3ccc(C)cc3)c2)cc1 [Compound 63, (S)-2-Amino-3-(3,5-bis((4-methylphenyl)sulfonamido)phenyl)propanoic Acid]
1 to 10	N[C@@H](Cc1ccc(S(=O)(=O)Nc2ccc(Cl)cc2)cc1)C(=O)O [Compound 80, (S)-2-Amino-3-(4-(N-(4-chlorophenyl)sulfamoyl)phenyl)propanoic Acid]
0.1 to 1	Cc1ccc(S(=O)(=O)Nc2ccccc2Br)cc1C[C@H](N)C(=O)O [Compound 75, (S)-2-Amino-3-(5-(N-(2-bromophenyl)sulfamoyl)-2-methylphenyl)propanoic Acid]
≥ 10	CS(=O)(=O)Nc1ccc(C[C@H](N)C(=O)O)cc1 [Compound 70, (S)-2-Amino-3-(4-(methylsulfonamido)phenyl)propanoic Acid]
1 to 10	Cc1ccc([S+]([O-])Cc2ccccc2)cc1C[C@H](N)C(=O)O (stereo partly drawn) [Compound 64, (2S)-2-Amino-3-(5-(benzylsulfinyl)-2-methylphenyl)propanoic Acid]
0.1 to 1	Cc1ccc(S(=O)(=O)NCc2ccc(C)c(C[C@H](N)C(=O)O)c2)cc1 [Compound 66, (S)-2-Amino-3-(2-methyl-5-(((4-methylphenyl)sulfonamido)methyl)phenyl)propanoic Acid]
0.1 to 1	Cc1ccc(C[S+]([O-])Cc2ccccc2)cc1C[C@H](N)C(=O)O (stereo partly drawn) [Compound 60, (2S)-2-Amino-3-(5-((benzylsulfinyl)methyl)-2-methylphenyl)propanoic Acid]
0.1 to 1	Cc1ccc(S(=O)(=O)Cc2ccccc2)cc1C[C@H](N)C(=O)O [Compound 65, (S)-2-Amino-3-(5-(benzylsulfonyl)-2-methylphenyl)propanoic Acid]
≥ 10	Cc1ccc(NS(C)(=O)=O)cc1C[C@H](N)C(=O)O [Compound 67, (S)-2-Amino-3-(2-methyl-5-(methylsulfonamido)phenyl)propanoic Acid]
≥ 10	N[C@@H](Cc1cccc(S(N)(=O)=O)c1)C(=O)O [Compound 71, (S)-2-Amino-3-(3-sulfamoylphenyl)propanoic Acid]
1 to 10	CN(C)S(=O)(=O)c1cccc(C[C@H](N)C(=O)O)c1 [Compound 73, (S)-2-Amino-3-(3-(N,N-dimethylsulfamoyl)phenyl)propanoic Acid]
1 to 10	N[C@@H](Cc1cccc(S(=O)(=O)N2CCCCC2)c1)C(=O)O [Compound 78, (S)-2-Amino-3-(3-(piperidin-1-ylsulfonyl)phenyl)propanoic Acid]
